{"source": "patent US11254690B2", "about": "“PTEFb inhibiting macrocyclic compounds” (BAYER AKTIENGESELLSCHAFT, priority 2017, dated 2022)", "key": {"CDK9/CycT1": {"target": "T1, CDK9/CycT1 (Homo sapiens, UniProt P50750)", "T1 construct": "Recombinant full-length His-tagged human CDK9 and CycT1; His; purchased Life Technologies PV4131; host or cells: insect cells", "T1 sequence (P50750 whole entry)": "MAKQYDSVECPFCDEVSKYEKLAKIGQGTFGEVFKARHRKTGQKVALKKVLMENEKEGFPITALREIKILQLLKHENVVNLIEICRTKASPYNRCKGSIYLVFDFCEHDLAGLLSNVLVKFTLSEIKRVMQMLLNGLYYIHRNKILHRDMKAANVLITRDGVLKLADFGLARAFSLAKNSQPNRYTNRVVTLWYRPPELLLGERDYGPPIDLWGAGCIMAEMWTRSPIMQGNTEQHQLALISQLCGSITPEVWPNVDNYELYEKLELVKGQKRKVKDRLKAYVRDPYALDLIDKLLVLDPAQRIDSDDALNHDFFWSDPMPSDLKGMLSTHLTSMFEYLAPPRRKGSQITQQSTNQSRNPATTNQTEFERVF", "T1 sequence (O60563 whole entry partner)": "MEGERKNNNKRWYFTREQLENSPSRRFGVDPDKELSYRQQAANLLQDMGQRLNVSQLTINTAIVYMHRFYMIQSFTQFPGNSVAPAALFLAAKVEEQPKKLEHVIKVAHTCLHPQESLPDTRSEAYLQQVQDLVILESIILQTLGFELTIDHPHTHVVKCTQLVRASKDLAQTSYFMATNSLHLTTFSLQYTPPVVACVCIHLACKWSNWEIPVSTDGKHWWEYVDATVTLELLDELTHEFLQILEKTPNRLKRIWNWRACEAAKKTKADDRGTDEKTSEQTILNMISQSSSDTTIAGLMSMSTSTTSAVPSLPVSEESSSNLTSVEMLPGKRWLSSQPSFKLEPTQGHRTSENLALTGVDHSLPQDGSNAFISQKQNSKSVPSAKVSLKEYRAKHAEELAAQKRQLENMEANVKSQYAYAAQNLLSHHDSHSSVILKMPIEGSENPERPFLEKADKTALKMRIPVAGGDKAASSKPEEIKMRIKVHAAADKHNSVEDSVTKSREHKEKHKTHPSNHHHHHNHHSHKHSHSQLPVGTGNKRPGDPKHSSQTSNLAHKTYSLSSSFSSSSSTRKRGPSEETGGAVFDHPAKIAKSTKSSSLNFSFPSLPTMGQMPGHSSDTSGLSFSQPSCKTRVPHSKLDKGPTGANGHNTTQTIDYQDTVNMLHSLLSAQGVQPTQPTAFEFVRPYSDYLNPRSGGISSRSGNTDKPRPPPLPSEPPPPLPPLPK", "assay": "CDK9/CycT1 high ATP kinase assay (TR-FRET, 2 mM ATP)", "assay_type": "biochemical", "settings": "for IC50: 2 mM ATP, Method 1b, lower limit for IC50s about 1-2 nM; for Selectivity high ATP CDK9 over high ATP CDK2: IC50 (high ATP CDK2)/IC50 (high ATP CDK9): ratio from Methods 1b and 2b, minimal values for IC50s near the assay limit", "method": "1b. CDK9/CycT1 High ATP Kinase Assay\nCDK9/CycT1-inhibitory activity of compounds of the present invention at a high ATP concentration after preincubation of enzyme and test compounds was quantified employing the CDK9/CycT1 TR-FRET assay as described in the following paragraphs.\nRecombinant full-length His-tagged human CDK9 and CycT1, expressed in insect cells and purified by Ni-NTA affinity chromatography, were purchased from Life Technologies (Cat. No PV4131). As substrate for the kinase reaction biotinylated peptide biotin-Ttds-YISPLKSPYKISEG (C-terminus in amide form) was used which can be purchased e.g. form the company JERINI peptide technologies (Berlin, Germany).\n(§1) For the assay 50 nl of a 100 fold concentrated solution of the test compound in DMSO was pipetted into either a black low volume 384 well microtiter plate or a black 1536 well microtiter plate (both Greiner Bio-One, Frickenhausen, Germany), 2 μl of a solution of CDK9/CycT1 in aqueous assay buffer [50 mM Tris/HCl pH 8.0, 10 mM MgCl2, 1.0 mM dithiothreitol, 0.1 mM sodium ortho-vanadate, 0.01% (v/v) Nonidet-P40 (Sigma)] were added and the mixture was incubated for 15 min at 22° C. to allow pre-binding of the test compounds to the enzyme before the start of the kinase reaction. […] The concentration of CDK9/CycT1 was adjusted depending of the activity of the enzyme lot and was chosen appropriate to have the assay in the linear range, typical concentrations were in the range of 0.5 μg/ml. The reaction was stopped by the addition of 3 μl of a solution of TR-FRET detection reagents (0.33 μM streptavidine-XL665 [Cisbio Bioassays, Codolet, France] and 1.67 nM anti-RB(pSer807/pSer811)-antibody from BD Pharmingen [#558389] and 2 nM LANCE EU-W1024 labeled anti-mouse IgG antibody [Perkin-Elmer, product no. AD0077]) in an aqueous EDTA-solution (167 mM EDTA, 0.2% (w/v) bovine serum albumin in 100 mM HEPES pH 7.5).\n(§2) The resulting mixture was incubated 1 h at 22° C. to allow the formation of complex between the phosphorylated biotinylated peptide and the detection reagents. Subsequently the amount of phosphorylated substrate was evaluated by measurement of the resonance energy transfer from the Eu-chelate to the streptavidine-XL. Therefore, the fluorescence emissions at 620 nm and 665 nm after excitation at 350 nm was measured in a TR-FRET reader, e.g. a Pherastar (BMG Labtechnologies, Offenburg, Germany) or a Viewlux (Perkin-Elmer). The ratio of the emissions at 665 nm and at […] was taken as the measure for the amount of phosphorylated substrate. The data were normalised (enzyme reaction without inhibitor=0% inhibition, all other assay components but no enzyme=100% inhibition)."}, "CDK2/CycE": {"target": "T2, CDK2/CycE (Homo sapiens, UniProt P24941)", "T2 construct": "GST; purchased ProQinase GmbH (Freiburg, Germany); host or cells: insect cells (Sf9)", "assay": "CDK2/CycE high ATP kinase assay (TR-FRET, 2 mM ATP)", "assay_type": "biochemical", "settings": "Method 2b", "method": "2b. CDK2/CycE High ATP Kinase Assay\nCDK2/CycE-inhibitory activity of compounds of the present invention at 2 mM adenosine-tri-phosphate (ATP) was quantified employing the CDK2/CycE TR-FRET (TR-FRET=Time Resolved Fluorescence Energy Transfer) assay as described in the following paragraphs.\nRecombinant fusion proteins of GST and human CDK2 and of GST and human CycE, expressed in insect cells (Sf9) and purified by Glutathion-Sepharose affinity chromatography, were purchase from ProQinase GmbH (Freiburg, Germany). As substrate for the kinase reaction biotinylated peptide biotin-Ttds-YISPLKSPYKISEG (C-terminus in amid form) was used which can be purchased e.g. form the company JERINI peptide technologies (Berlin, Germany).\nas §1, with “CDK2/CycE” for “CDK9/CycT1”, “about 10 ng/ml.” for “in the range of 0.5 μg/ml.”, “(0.333” for “(0.33”, “AD0077, as an alternative a Terbium-cryptate-labeled anti-mouse IgG antibody from Cisbio Bioassays can be used])” for “AD0077])”\nas §2"}, "A2780 cells": {"system": "A2780 cells", "assay": "Proliferation assay, A2780", "assay_type": "cell-based, human", "settings": "72-hour exposure, Cell Titre-Glo, read-out: Inhibition of A2780 cell proliferation IC50", "method": "Cultivated tumour cells (HeLa, human cervical tumour cells, ATCC CCL-2; NCI-H460, human non-small cell lung carcinoma cells, ATCC HTB-177; DU 145, hormone-independent human prostate carcinoma cells, ATCC HTB-81; HeLa-MaTu-ADR, multidrug-resistant human cervical carcinoma cells, EPO-GmbH Berlin; Caco-2, human colorectal carcinoma cells, ATCC HTB-37; B16F10, mouse melanoma cells, ATCC CRL-6475) were plated at a density of 5,000 cells/well (DU145, HeLa-MaTu-ADR), 3,000 cells/well (NCI-H460, HeLa), 1,500 cells/well (Caco-2), or 1,000 cells/well (B16F10) in a 96-well multititer plate in 200 μL of their respective growth medium supplemented 10% fetal calf serum. After 24 hours, the cells of one plate (zero-point plate) were stained with crystal violet (see below), while the medium of the other plates was supplemented with the test substances in various concentrations (0 μM, as well as in the range of 0.0001-10 μM; the final concentration of the solvent dimethyl sulfoxide was adjusted to 0.1%) using a Hewlett-Packard HP D300 Digital Dispenser. The cells were incubated for 4 days in the presence of test substances. Cell proliferation was determined by staining the cells with crystal violet: the cells were fixed by adding 20 μl/measuring point of an 11% glutaric aldehyde solution for 15 minutes at room temperature. After three washing cycles of the fixed cells with water, the plates were dried at room temperature. The cells were stained by adding 100 μl/measuring point of a 0.1% crystal violet solution (pH 3.0). After three washing cycles of the stained cells with water, the plates were dried at room temperature. The dye was dissolved by adding 100 μl/measuring point of a 10% acetic acid solution. The extinction was determined by photometry at a wavelength of 595 nm. The change of cell number, in percent, was calculated by normalization of the measured values to the extinction values of the zero-point plate (=0%) and the extinction of the untreated ([…]) cells (=100%). The IC50 values (inhibitory concentration at 50% of maximal effect) were determined by means of a 4 parameter fit. A2780 human ovarian carcinoma cells (ECACC #93112519) and non-adherent MOLM-13 human acute myeloid leukemia cells (DSMZ ACC 554) were seeded at a density of 3,000 cell/well (A2780) or 5,000 cells/well (MOLM-13) in a 96-well multititer plate in 150 μL of growth medium supplemented 10% fetal calf serum. After 24 hours, cell viability of one plate (zero-point plate) was determined with the Cell Titre-Glo Luminescent Cell Viability Assay (Promega), while the medium of the other plates was supplemented with the test substances in various concentrations (0 μM, as well as in the range of 0.0001-10 μM; the final concentration of the solvent dimethyl sulfoxide was adjusted to 0.1%) using a Hewlett-Packard HP D300 Digital Dispenser. Cell viability was assessed after 72-hour exposure with the Cell Titre-Glo Luminescent Cell Viability Assay (Promega). IC50 values (inhibitory concentration at 50% of maximal effect) were determined by means of a 4 parameter fit on measurement data which were normalized to vehicle (DMSO) treated cells (=100%) and measurement readings taken immediately before compound exposure (=0%)."}}, "note": "Where two headings read alike, the source gives them in different places.", "data": [{"smiles": "CSCc1cc2nc(c1)OC(C)CCCOc1cc(ccc1F)-c1cc(ncc1F)N2", "note": "(racemic) [Example 11, (rac)-3,20-difluoro-14-methyl-10-[(methylsulfanyl)methyl]-13,18-dioxa-5,7,24-triazatetracyclo[17.3.1.1^2,6.1^8,12]pentacosa-1(23),2(25),3,5,8(24),9,11,19,21-nonaene]", "values": [{"measurement": "IC50", "setting": "CDK9/CycT1", "result": 7, "unit": "nM"}, {"measurement": "Selectivity high ATP CDK9 over high ATP CDK2: IC50 (high ATP CDK2)/IC50 (high ATP CDK9)", "setting": "CDK9/CycT1", "result": 667}, {"measurement": "IC50", "setting": "CDK2/CycE", "result": 4670, "unit": "nM"}, {"measurement": "IC50", "setting": "A2780 cells; Homo sapiens, A2780, 72 h", "result": 346, "unit": "nM"}]}, {"smiles": "CC1CCCOc2cc(ccc2F)-c2cc(ncc2F)Nc2cc(CS(C)(=N)=O)cc(n2)O1", "note": "(single isomer, unassigned) [Example 14, 3,20-difluoro-14-methyl-10-[(S-methylsulfonimidoyl)methyl]-13,18-dioxa-5,7,24-triazatetracyclo[17.3.1.1^2,6.1^8,12]pentacosa-1(23),2(25),3,5,8(24),9,11,19,21-nonaene]", "values": [{"measurement": "IC50", "setting": "CDK9/CycT1", "result": 3, "unit": "nM"}, {"measurement": "Selectivity high ATP CDK9 over high ATP CDK2: IC50 (high ATP CDK2)/IC50 (high ATP CDK9)", "setting": "CDK9/CycT1", "result": 503}, {"measurement": "IC50", "setting": "CDK2/CycE", "result": 1510, "unit": "nM"}, {"measurement": "IC50", "setting": "A2780 cells", "result": 23, "unit": "nM"}]}, {"smiles": "CC1CCCOc2cc(ccc2F)-c2cc(ncc2F)Nc2cc(CS(C)(=N)=O)cc(n2)O1", "note": "(single isomer, unassigned) [Example 15, 3,20-difluoro-14-methyl-10-[(S-methylsulfonimidoyl)methyl]-13,18-dioxa-5,7,24-triazatetracyclo[17.3.1.1^2,6.1^8,12]pentacosa-1(23),2(25),3,5,8(24),9,11,19,21-nonaene]", "values": [{"measurement": "IC50", "setting": "CDK9/CycT1", "result": 3, "unit": "nM"}, {"measurement": "Selectivity high ATP CDK9 over high ATP CDK2: IC50 (high ATP CDK2)/IC50 (high ATP CDK9)", "setting": "CDK9/CycT1", "result": 540}, {"measurement": "IC50", "setting": "CDK2/CycE", "result": 1620, "unit": "nM"}, {"measurement": "IC50", "setting": "A2780 cells", "result": 16, "unit": "nM"}]}, {"smiles": "CC1CCCCCOc2cc(ccc2F)-c2cc(ncc2F)Nc2cc(CS(C)(=N)=O)cc(n2)O1", "note": "(single isomer, unassigned) [Example 26, 3,22-difluoro-14-methyl-10-[(S-methylsulfonimidoyl)methyl]-13,20-dioxa-5,7,26-triazatetracyclo[19.3.1.1^2,6.1^8,12]heptacosa-1(25),2(27),3,5,8(26),9,11,21,23-nonaene]", "values": [{"measurement": "IC50", "setting": "CDK9/CycT1", "result": 4, "unit": "nM"}, {"measurement": "Selectivity high ATP CDK9 over high ATP CDK2: IC50 (high ATP CDK2)/IC50 (high ATP CDK9)", "setting": "CDK9/CycT1", "result": 3250}, {"measurement": "IC50", "setting": "CDK2/CycE", "result": 13000, "unit": "nM"}, {"measurement": "IC50", "setting": "A2780 cells; Homo sapiens, A2780, 72 h", "result": 53, "unit": "nM"}]}, {"smiles": "CC1CCCCCOc2cc(ccc2F)-c2cc(ncc2F)Nc2cc(CS(C)(=N)=O)cc(n2)O1", "note": "(single isomer, unassigned) [Example 27, 3,22-difluoro-14-methyl-10-[(S-methylsulfonimidoyl)methyl]-13,20-dioxa-5,7,26-triazatetracyclo[19.3.1.1^2,6.1^8,12]heptacosa-1(25),2(27),3,5,8(26),9,11,21,23-nonaene]", "values": [{"measurement": "IC50", "setting": "CDK9/CycT1", "result": 5, "unit": "nM"}, {"measurement": "Selectivity high ATP CDK9 over high ATP CDK2: IC50 (high ATP CDK2)/IC50 (high ATP CDK9)", "setting": "CDK9/CycT1", "result": 544}, {"measurement": "IC50", "setting": "CDK2/CycE", "result": 2720, "unit": "nM"}, {"measurement": "IC50", "setting": "A2780 cells", "result": 102, "unit": "nM"}]}, {"smiles": "CC1CCCCOc2cc(ccc2F)-c2cc(ncc2F)Nc2cc(CS(C)(=O)=O)cc(n2)O1", "note": "(single isomer, unassigned) [Example 29, 3,21-difluoro-14-methyl-10-[(methylsulfonyl)methyl]-13,19-dioxa-5,7,25-triazatetracyclo[18.3.1.1^2,6.1^8,12]hexacosa-1(24),2(26),3,5,8(25),9,11,20,22-nonaene]", "values": [{"measurement": "IC50", "setting": "CDK9/CycT1", "result": 4, "unit": "nM"}, {"measurement": "Selectivity high ATP CDK9 over high ATP CDK2: IC50 (high ATP CDK2)/IC50 (high ATP CDK9)", "setting": "CDK9/CycT1", "result": 173}, {"measurement": "IC50", "setting": "CDK2/CycE", "result": 691, "unit": "nM"}, {"measurement": "IC50", "setting": "A2780 cells", "result": 25, "unit": "nM"}]}, {"smiles": "CC1CCCCOc2cc(ccc2F)-c2cc(ncc2F)Nc2cc(CS(C)(=O)=O)cc(n2)O1", "note": "(single isomer, unassigned) [Example 30, 3,21-difluoro-14-methyl-10-[(methylsulfonyl)methyl]-13,19-dioxa-5,7,25-triazatetracyclo[18.3.1.1^2,6.1^8,12]hexacosa-1(24),2(26),3,5,8(25),9,11,20,22-nonaene]", "values": [{"measurement": "IC50", "setting": "CDK9/CycT1", "result": 3, "unit": "nM"}, {"measurement": "Selectivity high ATP CDK9 over high ATP CDK2: IC50 (high ATP CDK2)/IC50 (high ATP CDK9)", "setting": "CDK9/CycT1", "result": 1196}, {"measurement": "IC50", "setting": "CDK2/CycE", "result": 3590, "unit": "nM"}, {"measurement": "IC50", "setting": "A2780 cells", "result": 55, "unit": "nM"}]}]}
